pIC50: −log10 of the molar value.
Biological target: T1, Histone deacetylase 8 (Homo sapiens, UniProt Q9BY41)
T1 sequence (Q9BY41 whole entry): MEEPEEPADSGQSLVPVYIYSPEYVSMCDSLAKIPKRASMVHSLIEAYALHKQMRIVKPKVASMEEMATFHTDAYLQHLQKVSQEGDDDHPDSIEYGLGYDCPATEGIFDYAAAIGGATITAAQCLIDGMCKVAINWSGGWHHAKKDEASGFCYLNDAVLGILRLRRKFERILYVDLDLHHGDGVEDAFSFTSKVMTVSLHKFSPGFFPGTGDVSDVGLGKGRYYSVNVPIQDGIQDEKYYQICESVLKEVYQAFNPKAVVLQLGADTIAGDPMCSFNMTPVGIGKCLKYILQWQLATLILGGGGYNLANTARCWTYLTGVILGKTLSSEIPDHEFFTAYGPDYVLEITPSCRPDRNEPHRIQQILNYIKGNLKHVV
Experiment: Inhibition of HDAC8 (unknown origin) expressed in Escherichia coli using Boc-Lys (acetyl)-AMC as substrate incubated for 5 min prior to substrate addition measured after 30 min by fluorescence assay

pIC50: 5.80
SMILES: COc1cc(C(=O)NN)ccc1COc1ccc(Cl)c(C)c1

— ChEMBL document CHEMBL3045820, “Discovery of a novel histone deacetylase 8 inhibitor by virtual screening” (Med Chem Res, 2012)
